PubChem BioAssay (NCI)
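In this assay, cells in 96-well plates receive the compound at five concentrations for 48 hours. Endpoints are linearly interpolated between the surrounding concentrations. GI50 = concentration required for 50% inhibition of growth. The concentration for full growth arrest is given as TGI.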

Tests used:
Assay in all cases: NCI-60 cell line screen, 48 h
[1] = system: SK-MEL-28 melanoma
[2] = system: HS 578T breast
[3] = system: MCF7 breast
[4] = system: CCRF-CEM leukemia
[5] = system: A549 NSCLC
[6] = system: T-47D breast
[7] = system: U251 CNS
[8] = system: M14 melanoma
[9] = system: MDA-N
[10] = system: RXF 393 renal

Structure (SMILES)	GI50 [1] [µM]	TGI [1] [µM]	GI50 [2] [µM]	TGI [2] [µM]	GI50 [3] [µM]	TGI [3] [µM]	GI50 [4] [µM]	TGI [4] [µM]	GI50 [5] [µM]	TGI [5] [µM]	GI50 [6] [µM]	TGI [6] [µM]	TGI [7] [µM]	TGI [8] [µM]	TGI [9] [µM]	TGI [10] [µM]
Cc1c(C)c2c(c(C)c1OC(=O)CCC(=O)[O-])CCC(C)(CCCCCCCCCCC[P+](c1ccccc1)(c1ccccc1)c1ccccc1)O2 (configuration not stated)	0.241	0.829	0.18	1.31	0.161	0.815	0.226	1.31	0.234	4.58	0.124	0.966				
COc1ccc(CN(CCN(C)C)c2ccccn2)cc1 (tested in a mixture with another compound)		> 100						> 100					> 100	> 100		
CC(C)C[S+]1C2=C([O-])CC(C)(C)CC2=Nc2ccccc21 (configuration not stated)		> 100		> 100		> 100		> 100		> 100		> 100	> 100	> 100	> 100	> 100
CC(=O)O[C@@H]1[C@H](OC2CCCCC2(c2ccccc2)c2ccccc2)O[N+]([O-])=CC12CCCCC2 (some centres not stated)		27		43.3		33.9		15.7		31.6		39.4	30.7	33.8	36.7	32.6
C/C=C/CC(C(=O)OCC)(N(C)C(=O)OC(C)(C)C)S(=O)(=O)c1ccc(C)cc1 (configuration not stated)		> 100		> 100		> 100		> 100		> 100		> 100	> 100	> 100	48	> 100
COC1(OC)CC2C(=O)N(Cc3ccccc3)C1C(S(=O)(=O)c1ccccc1)C2C(C)S(=O)(=O)c1ccccc1 (configuration not stated)		> 100						> 100		> 100			> 100	> 100		> 100
Cc1ccc(S(=O)(=O)NC(=O)Nc2c(S(N)(=O)=O)cc(S(N)(=O)=O)c(Cl)c2Cl)cc1		> 100		> 100		> 100		> 100		> 100			> 100	> 100	> 100	
CC(=O)Nc1ccc(NC(=O)CC(=O)Nc2ccc(NC(C)=O)cc2)cc1		> 100		> 100		> 100		> 100		> 100		> 100	> 100	> 100	> 100	
CC(NC(=O)Cc1ccc(OP(=O)(OCc2ccc([N+](=O)[O-])o2)N(C)CCCCCl)cc1)c1ccc(OCC2CCCCC2)c(C(N)=O)c1 (configuration not stated)		3.33				6.75		6.14		4.68		3.84	5.28	4.64	3.94	4.74
CN1C(=O)c2ccccc2C(O)(c2ccccc2)C1(O)c1ccccc1 (configuration not stated)		> 100		> 100				> 100		> 100		> 100	> 100	> 100	> 100	> 100
CC1(CO)C(O)CCC2(C)C1CCC1CC3CC12CCC3(O)CO (configuration not stated)		> 100				> 100		> 100		> 100			> 100			> 100
COc1ccc(C=Nc2ccc(-c3nc4ccccc4s3)cc2)cc1OC		> 100		> 100				55		> 100		81.2	> 100	> 100	99	62.4
CC(=O)N1C(C(=O)NN2CCOCC2)CSC1c1ccccc1 (configuration not stated)				> 100		> 100		> 100		> 100		> 100	> 100	> 100	> 100	
CC(=O)Nc1ccc(-c2nnc(SCC(=O)Nc3cccc(C)c3)o2)cc1		28.6						> 100		68.6			26.3	25.6		25.9
CCC(=O)OC1CCn2c1nc1c2C(=O)C(C)=C(NC(C)=O)C1=O (configuration not stated)		3.76						3.89		3.62			3.84	3.32		3.11
C[N+]1=C(c2cccnc2/C=N/O)OCC1(C)C		> 100						> 100		> 100			> 100	> 100		> 100
CC(=O)c1ccc(N2C(=O)C3c4[nH]c5ccccc5c4C4CCC(C(C)(C)C)CC4C3C2=O)cc1 (configuration not stated)		83.2						> 100		50.9			39.8	67.8		32.7
c1ccc(-c2csc3c2-n2cccc2C3N2CCCC2)cc1 (configuration not stated)		> 100		> 100		> 100		> 100		> 100			> 100		> 100	> 100
Cc1ccc2nc(N)[nH]c(=O)c2c1Sc1ccncc1		> 100						> 100		> 100			> 100	> 100		> 100
CC(=N/NC(=S)N1CCCCCC1)/C(C)=N\NC(=S)N1CCCCCC1		3.56		11.8		> 25.1				18.1		3.54	5.73	57.9	> 100	8.88
CCOC(=O)/C=C/n1c2ccccc2c(=O)c2cc(OC)ccc21		> 100						> 100		> 100			> 100	> 100		> 100
Cc1ccc(S(=O)(=O)NC(=O)C2S(=O)(=O)OCCOS2(=O)=O)cc1		> 100						> 100		> 100				> 100		
O=C1NC(=O)C(C(=O)C(=O)Nc2cc(Cl)ccc2Cl)C(=O)N1		> 100						> 100		> 100			> 100	> 100		> 100
CCOC(=O)COc1cc(-c2ccccc2F)nc2cc3c(cc12)OCO3		> 100				> 100		55.7		> 100		> 100	> 100	> 100	> 100	> 100
CCCCn1c(-c2ccccc2)cs/c1=N\N=C1C=C(C(C)(C)C)C(=O)C(C(C)(C)C)=C1								> 100		> 100			> 100	> 100		> 100
